Data reported in publication PMC11091889, “Silver Organometallics that are Highly Potent Thioredoxin and Glutathione Reductase Inhibitors: Exploring the Correlations of Solution Chemistry with the Strong Antibacterial Effects” (ACS Infectious Diseases, 2024).

Experiments:
[1] = tested on: P. aeruginosa (PA 14) biofilm; assay: Inhibition of biofilm formation, crystal violet staining; type: cell-based, Pseudomonas aeruginosa
Text: Silver and its complexes can strongly affect the growth of biofilms.[56]−[58] In view of the promising activity against Gram-negative bacteria as mentioned above, we evaluated the inhibiting effect of the silver complexes on biofilm production by P. aeruginosa by a method based on crystal violet staining (Table 4 and Figure S14). Complexes 3a–c and 4a–c were selected for the test based on the results of solubility, stability, and antibacterial screening. […] The lower activity of 3c might be explained by its lower kinetic solubility in the aqueous environment (see Figure 4).
The antibiofilm activity was determined according to a literature method.[73] A 1 mL aliquot of P. aeruginosa (PA 14) was taken from −20 °C stock, incubated in 25 mL LB medium (Luria–Bertani Broth) in a 250 mL flask, and kept at 37 °C at 100 rpm overnight. The optical density at 600 nm (OD600) of the culture solution was adjusted to match the turbidity of a 0.1 McFarland standard in M63 medium.[74] Selected compounds were mixed with 150 μL of bacterial solution in U-bottom 96 well plates to the final respective concentrations (25–0.2 μg/mL). The plates were further incubated at 37 °C for 24 h while shaking at 150 rpm. Afterward, the plates were rinsed once with 150 μL of PBS buffer, and the biofilms were stained using 150 μL of crystal violet (0.1%) staining at room temperature for 15 min and then rinsed once with PBS buffer. After rinsing, 150 μL of ethanol (95%) was added, and the absorbance was quantified using a plate reader (Synergy 2, BioTek, Santa Clara, USA) at 550 nm. The resulting antibiofilm activity is presented as percentage of inhibition at the respective smallest active concentration in μM with standard deviation (SD) of two repeats with duplicates. Myxovalargin A and DMSO (2.5%) were used as the positive and negative controls, respectively.

[2] = tested on: E. faecium (DSM 20477, ATCC 19434); assay: Broth microdilution antibacterial assay; type: cell-based, Enterococcus faecium; conditions: n = 3, TSY; for MIC E. faecium / EC50: mean ± standard error; for MIC E. faecium / MIC E. faecium (value in brackets): 22 h; for EC50: read-out: EC50 E. faecium
Protocol: (§1) The antibacterial effect of the silver NHC complexes and selected ligands was evaluated in two Gram-positive [Enterococcus faecium, methicillin resistant S. aureus, (MRSA)] and in four Gram-negative (Acinetobacter baumannii, Escherichia coli, Klebsiella pneumoniae, and Pseudomonas aeruginosa) pathogenic bacterial strains using broth microdilution assays. The resulting minimal inhibitory concentrations (MICs, Table 2) and EC50 (Table S6) were determined by a curve fitting procedure. Silver nitrate (AgNO3), SSD, and various antibiotics were used as references.
(§2) The following strains of ESKAPE panel were utilized and maintained at 37 °C in MHB (21 g/L Müller Hinton broth, pH 7.4) or TSY (30 g/L trypticase soy broth, 3 g/L yeast extract, pH 7.0–7.2) media: A. baumannii (DSM 30007, ATCC 19606), E. coli (DSM1116, ATCC 9637), K. pneumoniae (DSM 11678, ATCC33495), P. aeruginosa PA7 (DSM 24068) in MHB; E. faecium (DSM 20477, ATCC 19434), and S. aureus MRSA (DSM 11822, ICB 25701) in TSY. MIC values were determined following a standardized protocol in broth microdilution assays. The compounds and reference substances (AgNO3 and SSD) were serially diluted from 64 to 1 μg/mL. Starting inocula of 2–8 × 10^5 CFU/mL in MHB or TSY media at 37 °C were used, and serial dilutions were carried out in 96-well microtiter plates in duplicate. After incubation of the plates for 22 h at 37 °C, the absorbance at 600 nm was measured using The Spark multimode microplate reader (Tecan Trading AG). The MIC values for the tested compounds were determined in three independent experiments and presented in μM with standard errors and also in μg/mL. Amikacin (P. aeruginosa), linezolid (S. aureus), and ciprofloxacin (all other strains) served as positive controls. The MIC and EC50 values were determined by curve fitting with Sigma Plot. To determine the effect of the culture medium on the activity of silver compounds, the assay was performed using MHB, TSY, or DMEM (Gibco). To observe the effect of individual components of TSY medium, antibacterial tests were performed using MHB with addition of tryptone (17 g/L) or yeast extract (3 g/L, both were purchased from Sigma).

[3] = tested on: K. pneumoniae (DSM 11678, ATCC33495); assay: Broth microdilution antibacterial assay; type: cell-based, Klebsiella pneumoniae; conditions: n = 3, MHB; for MIC K. pneumoniae / EC50: mean ± standard error; for MIC K. pneumoniae / MIC K. pneumoniae (value in brackets): 22 h; for EC50: read-out: EC50 K. pneumoniae
Protocol: as §1, §2

[4] = tested on: A. baumannii (DSM 30007, ATCC 19606); assay: Broth microdilution antibacterial assay; type: cell-based, Acinetobacter baumannii; conditions: n = 3, MHB; for MIC A. baumannii / EC50: mean ± standard error; for MIC A. baumannii / MIC A. baumannii (value in brackets): 22 h; for EC50: read-out: EC50 A. baumannii
Protocol: as §1, §2

[5] = tested on: S. aureus MRSA (DSM 11822, ICB 25701); assay: microbe, parasite or virus in culture; type: cell-based, methicillin resistant S. aureus; conditions: n = 3, TSY; for MIC MRSA / EC50: mean ± standard error; for MIC MRSA / MIC MRSA (value in brackets): 22 h; for EC50: read-out: EC50 MRSA
Protocol: as §1
The importance of the culture medium used in antibacterial assays has been pointed out for antibiotics and in particular for silver.[53]−[55] In our recent studies, tryptic soy yeast (TSY) broth has been used for growing Gram-positive bacteria. Two components thereof, tryptone and yeast extract, have been reported to affect the antibacterial activity of silver nitrate.[55] Moreover, such an effect was also observed for other media containing at least one of those components.[11],[53] […] Silver nitrate served as a reference, and three different growth media were studied, namely, Müller-Hinton Broth (MHB, commonly used for Gram-negative bacteria), TSY broth (commonly used for Gram-positive bacteria), and DMEM supplemented with 10% FCS (commonly used for growth of mammalian and human cells).
as §2

[6] = tested on: P. aeruginosa PA7 (DSM 24068); assay: microbe, parasite or virus in culture; type: cell-based, Pseudomonas aeruginosa; conditions: n = 3, MHB; for MIC P. aeruginosa / EC50: mean ± standard error; for MIC P. aeruginosa / MIC P. aeruginosa (value in brackets): 22 h; for EC50: read-out: EC50 P. aeruginosa
Protocol: as §1, §2

[7] = tested on: E. coli (DSM1116, ATCC 9637); assay: microbe, parasite or virus in culture; type: cell-based, Escherichia coli; conditions: n = 3, MHB; for EC50 / MIC E. coli: mean ± standard error; for MIC E. coli / MIC E. coli (value in brackets): 22 h
Protocol: as §1, §2

[8] = Conductometry: molar conductivity of silver complexes in DMSO; type: physicochemical; conditions: 1.0 mM in DMSO, calculated as monocarbene (NHC)AgX
Protocol: Since both the neutral monocarbene and the ionic biscarbene form of the complexes may exist in various proportions in the solution, conductometry studies were performed to reveal the dominant structure. The molar conductivity of 1.0 mM solutions of each complex in DMSO was determined after different periods up to 24 h using AgNO3 as 1:1 electrolyte reference (see Table 1). According to the literature, the expected range of molar conductivity for 1:1 electrolytes in DMSO is 35–90 S cm^2 mol^–1.[45],[46]
Conductivity measurements were performed using an Apera Instruments EC9500 conductivity meter. Solutions (as indicated, otherwise 1.0 mM) of all compounds were prepared using freshly distilled DMSO with a specific electrical conductivity of ≤3 × 10^–8 S cm^–1. The conductivities were measured at 25 ± 2 °C immediately after complete dissolution and after 24 h.

Row | Molecule | MIC E. faecium [2] [µM] | EC50 [2] [µM] | MIC E. faecium (value in brackets) [2] [µg/mL] | MIC K. pneumoniae [3] [µM] | EC50 [3] [µM] | MIC K. pneumoniae (value in brackets) [3] [µg/mL] | MIC A. baumannii [4] [µM] | EC50 [4] [nM] | MIC A. baumannii (value in brackets) [4] [µg/mL] | MIC MRSA [5] [µM] | EC50 [5] [µM] | MIC MRSA (value in brackets) [5] [µg/mL] | MIC P. aeruginosa [6] [µM] | EC50 [6] [µM] | MIC P. aeruginosa (value in brackets) [6] [µg/mL] | EC50 [7] [µM] | MIC E. coli [7] [µM] | MIC E. coli (value in brackets) [7] [µg/mL] | Molar conductivity ΛM ([8]; 1 h after dissolution) [S cm^2 mol^–^1] | Molar conductivity ΛM ([8]; 24 h after dissolution) [S cm^2 mol^–^1] | also measured
1 | myxovalargin A [reference compound] |  |  |  |  |  |  |  |  |  |  |  |  |  |  |  |  |  |  |  |  | smallest active concentration for biofilm inhibition ([1]; concentration at which the % inhibition was found): 18.6 µM; biofilm inhibition ([1]; ± SD, n = 4, at the respective smallest active concentration, 24 h): 68 ± 0%
2 | CCn1[c](=[Ag][Cl])n(Cc2ccccn2)c2ccccc21 [2a, Chlorido (1-Ethyl-3-(pyridin-2-ylmethyl)-benzimidazol-2-ylidene) Silver(I)] | 168 ± 0.0 | 132 ± 6.8 | 64 | 17.5 ± 3.5 | 12 ± 0.9 | 7 | 10.5 ± 0.0 | 2400 ± 100 | 4 | 168 ± 0.0 | 98.5 ± 0.8 | 64 | 10.5 ± 0.0 | 6.4 ± 0.5 | 4 | 33.3 ± 4.7 | 56.0 ± 14.0 | 21 | 3.47 | 3.03 | 
3 | [Br][Ag][c]1n(Cc2ccccn2)c2ccccc2[n+]1Cc1ccccn1 [6b] | 132 ± 0.0 | 105 ± 0.1 | 64 | 13.7 ± 0.0 | 6.4 ± 0.2 | 7 | 8.2 ± 0.0 | 470 ± 20 | 4 | 132 ± 0.0 | 90.7 ± 4.5 | 64 | 27.3 ± 5.5 | 13.5 ± 3.7 | 13 | 14.6 ± 1 | 21.9 ± 5.5 | 10 | 6.13 | 6.50 | 
4 | Cn1[c](=[Ag][Br])n(Cc2ccccn2)c2ccccc21 [1b, Bromido (1-Methyl-3-(pyridin-2-ylmethyl)-benzimidazol-2-ylidene) Silver(I)] | 156 ± 0.0 | 129 ± 2.8 | 64 | 16.2 ± 3.2 | 10 ± 2.2 | 7 | 16.2 ± 3.2 | 2600 ± 300 | 7 | 156 ± 0.0 | 134 ± 14 | 64 | 25.9 ± 6.5 | 10.9 ± 3.9 | 11 | 71.3 ± 6.7 | 103 ± 25 | 43 | 4.75 | 4.82 | 
5 | [Br][Ag]=[c]1n(Cc2ccccc2)c2ccccc2n1Cc1ccccn1 [5b, Bromido (1-(Pyridin-2-ylmethyl)-3-benzyl-benzimidazol-2-ylidene) Silver(I)] | 131 ± 0.0 | 111 ± 0.2 | 64 | 16.4 ± 0.0 | 9.5 ± 0.3 | 8 | 16.4 ± 0.0 | 720 ± 150 | 8 | 131 ± 0.0 | 75.5 ± 1.4 | 64 | 65.7 ± 0.0 | 28.2 ± 2.7 | 32 | 27.1 ± 1.2 | 32.8 ± 0.0 | 16 | 6.58 | 5.68 | 
